Format in all cases: cell-based
One test has as its system 4T1. The test can be described thus: Cytotoxicity, triple negative breast cancer cell line 4T1. The note with it: Mus musculus.
The subject of the next test is SKOV3. The test can be described thus: Cytotoxicity, ovarian cancer cell line SKOV3. The note with it: Homo sapiens, SK-OV-3.
In another test the test system is MDA-MB-231. Nature of the test: Cytotoxicity, triple negative breast cancer cell line MDA-MB-231. Conditions: Homo sapiens.
The subject of the next test is BxPC3. The test can be described thus: Cytotoxicity, pancreatic cancer cell line BxPC3. The note with it: Homo sapiens, BXPC-3.
The test system of a further test is CFPAC-1. Nature of the test: Cytotoxicity, pancreatic cancer cell line CFPAC-1. The note with it: Homo sapiens.

pIC50: −log10 of the molar value.

Take `CC(=O)O[C@@]12CO[C@@H]1C[C@H](O)[C@@]1(C)C(=O)[C@H](O)C3=C(C)[C@@H](OC(=O)[C@H](O)[C@@H](NC(=O)OC(C)(C)C)c4ccccc4)C[C@@](O)([C@@H](OC(=O)c4ccccc4)[C@H]21)C3(C)C` [DTX, docetaxel]: the pIC50 was 7.54 in the test with 4T1; 8.00 in the test on SKOV3; 7.73 with MDA-MB-231; 7.64 in the test on BxPC3; 7.41 with CFPAC-1.
